Experimental data published in ChEMBL document CHEMBL1159057, “Novel anilinophthalimide derivatives as potential probes for beta-amyloid plaque in the brain” (Bioorg Med Chem, 2010).
Each block holds one compound with its values, some of them ahead of it. Active and inactive are the calls of the source. The rule behind the calls is not given here.

Tests used:
[1] = Binding affinity to beta-amyloid plaques
[2] = target: T1, Amyloid-beta precursor protein (Homo sapiens, UniProt P05067); experiment: Displacement of [125I-N-Methyl-4-(4-bromoanilino)phthalimide from beta-amyloid plaques isolated from Alzheimer's disease patient brain
[3] = target: T1, Amyloid-beta precursor protein; experiment: Binding affinity to beta-amyloid plaques isolated from Alzheimer's disease patient brain at 50 uM by fluorescence micrography
[4] = test system: Blood; experiment: Biodistribution in Kunming mouse blood at 2 uCi, iv after 2 mins; type: ADME, organism-based; details: in vivo
[5] = test system: Blood; experiment: Biodistribution in Kunming mouse blood at 2 uCi, iv after 10 mins; type: ADME, organism-based; details: in vivo
[6] = test system: Blood; experiment: Biodistribution in Kunming mouse blood at 2 uCi, iv after 30 mins; type: ADME, organism-based; details: in vivo, 0.5 h
[7] = test system: Blood; experiment: Biodistribution in Kunming mouse blood at 2 uCi, iv after 60 mins; type: ADME, organism-based; details: in vivo, 1 h
[8] = test system: Heart; experiment: Biodistribution in Kunming mouse heart at 2 uCi, iv after 2 mins; type: ADME, organism-based; details: in vivo
[9] = test system: Heart; experiment: Biodistribution in Kunming mouse heart at 2 uCi, iv after 10 mins; type: ADME, organism-based; details: in vivo
[10] = test system: Heart; experiment: Biodistribution in Kunming mouse heart at 2 uCi, iv after 30 mins; type: ADME, organism-based; details: in vivo, 0.5 h
[11] = test system: Heart; experiment: Biodistribution in Kunming mouse heart at 2 uCi, iv after 60 mins; type: ADME, organism-based; details: in vivo, 1 h
[12] = test system: Lung; experiment: Biodistribution in Kunming mouse lung at 2 uCi, iv after 2 mins; type: ADME, organism-based; details: in vivo
[13] = test system: Lung; experiment: Biodistribution in Kunming mouse lung at 2 uCi, iv after 10 mins; type: ADME, organism-based; details: in vivo
[14] = test system: Lung; experiment: Biodistribution in Kunming mouse lung at 2 uCi, iv after 30 mins; type: ADME, organism-based; details: in vivo, 0.5 h
[15] = test system: Lung; experiment: Biodistribution in Kunming mouse lung at 2 uCi, iv after 60 mins; type: ADME, organism-based; details: in vivo, 1 h
[16] = test system: Kidney; experiment: Biodistribution in Kunming mouse kidney at 2 uCi, iv after 2 mins; type: ADME, organism-based; details: in vivo
[17] = test system: Kidney; experiment: Biodistribution in Kunming mouse kidney at 2 uCi, iv after 10 mins; type: ADME, organism-based; details: in vivo
[18] = test system: Kidney; experiment: Biodistribution in Kunming mouse kidney at 2 uCi, iv after 30 mins; type: ADME, organism-based; details: in vivo, 0.5 h
[19] = test system: Kidney; experiment: Biodistribution in Kunming mouse kidney at 2 uCi, iv after 60 mins; type: ADME, organism-based; details: in vivo, 1 h
[20] = test system: Spleen; experiment: Biodistribution in Kunming mouse spleen at 2 uCi, iv after 2 mins; type: ADME, organism-based; details: in vivo
[21] = test system: Spleen; experiment: Biodistribution in Kunming mouse spleen at 2 uCi, iv after 10 mins; type: ADME, organism-based; details: in vivo
[22] = test system: Spleen; experiment: Biodistribution in Kunming mouse spleen at 2 uCi, iv after 30 mins; type: ADME, organism-based; details: in vivo, 0.5 h
[23] = test system: Spleen; experiment: Biodistribution in Kunming mouse spleen at 2 uCi, iv after 60 mins; type: ADME, organism-based; details: in vivo, 1 h
[24] = test system: Liver; experiment: Biodistribution in Kunming mouse liver at 2 uCi, iv after 2 mins; type: ADME, organism-based; details: in vivo
[25] = test system: Liver; experiment: Biodistribution in Kunming mouse liver at 2 uCi, iv after 10 mins; type: ADME, organism-based; details: in vivo
[26] = test system: Liver; experiment: Biodistribution in Kunming mouse liver at 2 uCi, iv after 30 mins; type: ADME, organism-based; details: in vivo, 0.5 h
[27] = test system: Liver; experiment: Biodistribution in Kunming mouse liver at 2 uCi, iv after 60 mins; type: ADME, organism-based; details: in vivo, 1 h
[28] = test system: Brain; experiment: Biodistribution in Kunming mouse brain at 2 uCi, iv after 2 mins; type: ADME, organism-based; details: in vivo
[29] = test system: Brain; experiment: Biodistribution in Kunming mouse brain at 2 uCi, iv after 10 mins; type: ADME, organism-based; details: in vivo
[30] = test system: Brain; experiment: Biodistribution in Kunming mouse brain at 2 uCi, iv after 30 mins; type: ADME, organism-based; details: in vivo, 0.5 h
[31] = test system: Brain; experiment: Biodistribution in Kunming mouse brain at 2 uCi, iv after 60 mins; type: ADME, organism-based; details: in vivo, 1 h
[32] = Partition coefficient, log P at pH 7.4 phosphate buffer; type: physicochemical

T1 sequence (P05067 whole entry): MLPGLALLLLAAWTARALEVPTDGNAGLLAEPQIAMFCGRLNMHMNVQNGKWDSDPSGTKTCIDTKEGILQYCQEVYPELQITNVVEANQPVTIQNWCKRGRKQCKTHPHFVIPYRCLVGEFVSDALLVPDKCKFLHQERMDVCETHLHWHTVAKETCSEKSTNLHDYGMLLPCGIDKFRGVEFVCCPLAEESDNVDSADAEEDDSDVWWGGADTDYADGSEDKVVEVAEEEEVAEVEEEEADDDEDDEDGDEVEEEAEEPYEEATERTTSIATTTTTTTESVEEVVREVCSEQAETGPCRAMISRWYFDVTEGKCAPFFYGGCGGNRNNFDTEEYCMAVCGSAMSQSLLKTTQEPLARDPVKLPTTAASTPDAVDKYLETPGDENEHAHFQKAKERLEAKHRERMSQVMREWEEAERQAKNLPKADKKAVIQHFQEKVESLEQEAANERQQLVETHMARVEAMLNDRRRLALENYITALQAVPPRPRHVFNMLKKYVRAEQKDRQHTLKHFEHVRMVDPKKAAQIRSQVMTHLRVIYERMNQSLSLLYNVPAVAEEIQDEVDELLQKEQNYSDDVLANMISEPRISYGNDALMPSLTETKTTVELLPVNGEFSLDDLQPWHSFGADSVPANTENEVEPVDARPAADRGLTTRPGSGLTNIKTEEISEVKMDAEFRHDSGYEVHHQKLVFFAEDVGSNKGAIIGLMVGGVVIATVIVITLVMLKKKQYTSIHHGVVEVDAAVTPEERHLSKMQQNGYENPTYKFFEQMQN

- Ki [1]: 2.7 nM
Compound: CC(=C(C#N)C#N)c1ccc2cc(N(C)CC[18F])ccc2c1

- Ki [2]: 4.1 nM
- Activity [3]: Active
Compound: Cc1ccc(Nc2ccc3c(c2)C(=O)N(C)C3=O)cc1

- Ki [1]: 5.7 nM
Compound: COc1ccc2cc([C@H](C)C(=O)O)ccc2c1 [NAPROXEN]

- Ki [2]: 3.8 nM
- Activity [3]: Active
Compound: CN1C(=O)c2ccc(Nc3ccc(Br)cc3)cc2C1=O

- Ki [2]: 7.6 nM
Compound: CN1C(=O)c2ccc(Nc3ccccc3)cc2C1=O

Continued, compound first:

Compound: CN1C(=O)c2ccc(Nc3ccc(O)cc3)cc2C1=O
- Ki [2]: 19.7 nM

Compound: CN1C(=O)c2ccc(Nc3ccc(I)cc3)cc2C1=O
- Ki [2]: 0.9 nM
- Activity [3]: Active

Compound: [11CH3]Nc1ccc(-c2nc3ccc(O)cc3s2)cc1 [PITTSBURGH COMPOUND B]
- Ki [1]: 4.3 nM

Compound: O=C1NC(=O)c2cc(Nc3ccccc3)c(Nc3ccccc3)cc21 [DAPH]
- Ki [2]: > 1000 nM

Compound: Nc1c(/N=N/c2ccc(-c3ccc(/N=N/c4cc(S(=O)(=O)O)c5ccccc5c4N)cc3)cc2)cc(S(=O)(=O)O)c2ccccc12 [CONGO RED]
- Ki [2]: > 1000 nM

Compound: CN1C(=O)c2ccc(Nc3ccc([125I])cc3)cc2C1=O
- Kd [2]: 0.21 nM
- Drug uptake [4]: 2.47 % ID/g
- Drug uptake [5]: 2.74 % ID/g
- Drug uptake [6]: 2.69 % ID/g
- Drug uptake [7]: 2.78 % ID/g
- Drug uptake [8]: 7.4 % ID/g
- Drug uptake [9]: 3.41 % ID/g
- Drug uptake [10]: 2.83 % ID/g
- Drug uptake [11]: 2.24 % ID/g
- Drug uptake [12]: 6.77 % ID/g
- Drug uptake [13]: 6.35 % ID/g
- Drug uptake [14]: 3.47 % ID/g
- Drug uptake [15]: 2.82 % ID/g
- Drug uptake [16]: 9.81 % ID/g
- Drug uptake [17]: 6.55 % ID/g
- Drug uptake [18]: 3.59 % ID/g
- Drug uptake [19]: 2.68 % ID/g
- Drug uptake [20]: 5.64 % ID/g
- Drug uptake [21]: 6.87 % ID/g
- Drug uptake [22]: 3.7 % ID/g
- Drug uptake [23]: 2.92 % ID/g
- Drug uptake [24]: 11.98 % ID/g
- Drug uptake [25]: 14.38 % ID/g
- Drug uptake [26]: 5.84 % ID/g
- Drug uptake [27]: 3.37 % ID/g
- Drug uptake [28]: 5.16 % ID/g
- Drug uptake [29]: 3.41 % ID/g
- Drug uptake [30]: 1.16 % ID/g
- Drug uptake [31]: 0.59 % ID/g
- logD [32]: 2.16

Compound: CN1C(=O)c2cc(Nc3ccccc3)c(Nc3ccccc3)cc2C1=O
- Ki [2]: > 1000 nM

Compound: COc1ccc(Nc2ccc3c(c2)C(=O)N(C)C3=O)cc1
- Ki [2]: 16.3 nM
